Test results: article PMC6629894, “Ruthenium Complexes Containing Heterocyclic Thioamidates Trigger Caspase-Mediated Apoptosis Through MAPK Signaling in Human Hepatocellular Carcinoma Cells” (Frontiers in Oncology, 2019)

Tests used:
[1] = system: SCC-4 (human oral squamous cell carcinoma); experiment: Alamar blue cytotoxicity assay, 72 h; format: cell-based
Excerpt: (§1) The cell lines HepG2 (human hepatocellular carcinoma), HL-60 (human promyelocytic leukemia), K-562 (human chronic myelogenous leukemia), B16-F10 (mouse melanoma), MCF-7 (human breast carcinoma), HCT116 (human colon carcinoma), HSC-3 (human oral squamous cell carcinoma), SCC-4 (human oral squamous cell carcinoma), MRC-5 (human lung fibroblast), WT SV40 MEF (wild-type immortalized mouse embryonic fibroblast), and BAD KO SV40 MEF (BAD gene knockout immortalized mouse embryonic fibroblasts) were obtained from the American Type Culture Collection (ATCC, Manassas, VA, USA). Cells were cultured in RPMI 1640 medium (Gibco-BRL, Gaithersburg, MD, USA) with 10% fetal bovine serum (Life, Carlsbad, CA, USA), 2 mM L-glutamine (Vetec Química Fina, Duque de Caxias, RJ, Brazil) and 50 μg/mL gentamycin (Life). For all experiments, adherent cells were collected by treatment with 0.25% trypsin-EDTA solution (Gibco-BRL). All cell lines were cultured in flasks at 37°C in 5% CO2 and were subcultured every 3–4 days to maintain exponential growth. All cell lines were tested for mycoplasma using a mycoplasma staining kit (Sigma-Aldrich Co.) to validate that the cells that were used were free from contamination.
(§2) Cytotoxicity was measured colorimetrically using an Alamar blue method that was performed as previously described ([20], [21]). Cells were seeded in 96-well plates for all experiments (7 × 10^4 cells/mL for adherent cells or 3 × 10^5 cells/mL for suspension cells in 100 μL of medium) and incubated overnight at 37°C with 5% CO2 to allow for adherence. The complexes were dissolved in 0.5% dimethyl sulfoxide (DMSO, Vetec Química Fina) at eight different concentrations from 0.19 to 25 μg/mL and were added to each well and incubated for 72 h. The negative control was treated with the vehicle (0.5% DMSO) that was used to solubilize and dilute the complexes. […] Four (for cell lines) or 24 h (for PBMCs) before the end of incubation, 20 μL of a stock solution (0.312 mg/mL) of resazurin (Sigma-Aldrich Co.) was added to each well. Absorbance was measured at 570 and 600 nm using a SpectraMax 190 Microplate Reader (Molecular Devices, Sunnyvale, CA, USA).

[2] = system: advanced HCC; set-up: method as in PMID 18650514, PMID 28604110, PMID 29533189; details: ref [2]–[4]; cited from earlier work
[3] = system: MCF-7 (human breast carcinoma); experiment: Alamar blue cytotoxicity assay, 72 h; format: cell-based
Excerpt: as §1, §2

[4] = system: HCT116 (human colon carcinoma); experiment: Alamar blue cytotoxicity assay, 72 h; format: cell-based; details: PBMCs vs HCT116
Excerpt: as §1, §2

[5] = system: HL-60 (human promyelocytic leukemia); experiment: Alamar blue cytotoxicity assay, 72 h; format: cell-based
Excerpt: as §1, §2

[6] = system: HSC-3 (human oral squamous cell carcinoma); experiment: Alamar blue cytotoxicity assay, 72 h; format: cell-based; details: PBMCs vs HSC-3
Excerpt: as §1, §2

[7] = system: B16-F10 (mouse melanoma); experiment: Alamar blue cytotoxicity assay, 72 h; format: cell-based; details: for IC50: read-out: IC50 and 95% CI, B16-F10, 72 h
Excerpt: as §1, §2

[8] = system: human topoisomerase IB; set-up: method as in PMID 26795676; details: ref [18], [19]; cited from earlier work
[9] = system: BAD KO SV40 MEF (BAD gene knockout immortalized mouse embryonic fibroblasts); experiment: Alamar blue cytotoxicity assay, 72 h; format: cell-based; details: read-out: IC50 and 95% CI
[10] = system: WT SV40 MEF (wild-type immortalized mouse embryonic fibroblast); experiment: Alamar blue cytotoxicity assay, 72 h; format: cell-based; details: read-out: IC50 and 95% CI

`O=C1[O][Pt]2([NH][C@@H]3CCCC[C@H]3[NH]2)[O]C1=O` [oxaliplatin, reference compound] showed an IC50 ([1]; read-out: IC50 and 95% CI, SCC-4, 72 h) of 7.7 µM.
In the case of `CNC(=O)c1cc(Oc2ccc(NC(=O)Nc3ccc(Cl)c(C(F)(F)F)c3)cc2)ccn1` [sorafenib], the prolongation of survival [2] is listed as 3 months.
For `F[P-](F)(F)(F)(F)F.Nc1cc(N)nc([S-])n1.[Ru+2].c1ccc(-c2ccccn2)nc1.c1ccc(P(CCCCP(c2ccccc2)c2ccccc2)c2ccccc2)cc1` [Complex 3, [Ru(dmp)(bipy)(dppb)]PF6], the “Selectivity index (SI = IC50 [noncancerous cells]/IC50 [cancer cells])” value (“Selectivity index” for short) ([3]; PBMCs vs MCF-7) was 1.5, the IC50 ([3]; read-out: IC50 and 95% CI, MCF-7, 72 h) was 8.7 µM and the “Selectivity index” value [4] was 2.2. The “Selectivity index” value ([1]; MRC-5 vs SCC-4) was 1.1, the “Selectivity index” value ([5]; MRC-5 vs HL-60) was 1.1 and the “Selectivity index” value ([5]; PBMCs vs HL-60) was 2.6. For the same molecule, the “Selectivity index” value [6] was 2.5, the IC50 [7] was 3.9 µM and the “supercoiled DNA relaxation mediated by human topoisomerase IB” value [8] was “inhibit the supercoiled DNA relaxation”.
`N.N.[Cl][Pt][Cl]` [cisplatin, reference compound] gave an IC50 [9] of 47.3 µM and an IC50 [10] of 36.9 µM.
In the case of `F[P-](F)(F)(F)(F)F.O=C(O)c1ccc([S-])nc1.[Ru+2].c1ccc(-c2ccccn2)nc1.c1ccc(P(CCCCP(c2ccccc2)c2ccccc2)c2ccccc2)cc1` [Complex 4, [Ru(mpca)(bipy)(dppb)]PF6], the “Selectivity index” value ([5]; PBMCs vs HL-60) is reported as 2.6, the IC50 ([5]; read-out: IC50 and 95% CI, HL-60, 72 h) is reported as 8.7 µM and the “Selectivity index” value ([7]; PBMCs vs B16-F10) is reported as 1.3. For the same molecule, the IC50 [7] was 17.7 µM and the “supercoiled DNA relaxation mediated by human topoisomerase IB” value [8] was “inhibit the supercoiled DNA relaxation”.
